Values of other authors, collected in patent publication US20150313913A1, “POSITIVE ALLOSTERIC MODULATORS OF THE GABA-A RECEPTOR IN THE TREATMENT OF AUTISM” (UNIVERSITY OF WASHINGTON THROUGH ITS CENTER FOR …, priority 2013, published 2015).
Like-named read-outs stand apart in the source and are kept apart here.

Assays:
GABA-A receptor = settings: cited from earlier work; for Effect at GABA-A receptor: Table 1, exemplary benzodiazepines; for Effect at GABA receptor: Table 4, exemplary non-BDZ GABA-A enhancers
[1] = cited from earlier work; for Dose in humans for anti-anxiety, anti-convulsive, or sedative effects (dose range, typical or average dose): Table 1, values not marked *

Compound | Effect at GABA-A receptor (GABA-A receptor) | Dose in humans for anti-anxiety, anti-convulsive, or sedative effects: equivalent dose to 10 mg diazepam ([1]; Table 1, values marked *) | further results
Cc1nnc2n1-c1ccc(Cl)cc1C(c1ccccc1)=NC2 [Alprazolam] | Full agonist | – | Dose in humans for anti-anxiety, anti-convulsive, or sedative effects (dose range, typical or average dose) [1]: dose range of 0.5 to 3.0 mg
CN(C(=O)CNC(=O)[C@@H](N)CCCCN)c1ccc(Cl)cc1C(=O)c1ccccc1 [Avizafone] | Full agonist | – | Dose in humans for anti-anxiety, anti-convulsive, or sedative effects ([1]; Table 1): 3.5 mg/kg
CC(C)(C)OC(=O)c1ncn2c1[C@@H]1CCCN1C(=O)c1c(Br)cccc1-2 [Bretazenil] | Partial Agonist High potency | 0.5 mg | –
O=C1CN=C(c2ccccn2)c2cc(Br)ccc2N1 [Bromazepam] | Agonist | 5 to 6 mg | –
Cc1nnc2n1-c1sc(Br)cc1C(c1ccccc1Cl)=NC2 [Brotizolam] | Agonist | 0.25 mg | Dose in humans, sedative ([1]; Table 1, Sedative): 0.125 to 25 mg; Dose in humans, anti-anxiety ([1]; Table 1, anti-anxiety): 80 to 100 mg
CNC1=Nc2ccc(Cl)cc2C(c2ccccc2)=[N+]([O-])C1 [Chlordiazepoxide] | Agonist Long- acting | 25 mg | –
N#CCCN1C(=O)C(O)N=C(c2ccccc2F)c2cc(Cl)ccc21 (stereo not drawn) [Cinolazepam] | Agonist | 40 mg | –
O=C(O)C1N=C(c2ccccc2)c2cc(Cl)ccc2NC1=O (stereo not drawn) [Clorazepate] | Partial Agonist (Prodrug) | 15 mg | Dose in humans for anti-anxiety, anti-convulsive, or sedative effects, per day ([1]; Table 1, typical daily dose): 15 to 60 mg/day
CCc1cc2c(s1)N(C)C(=O)CN=C2c1ccccc1Cl [Clotiazepam] | Full agonist | 5 to 10 mg | –
O=C1CN2CCOC2(c2ccccc2Cl)c2cc(Cl)ccc2N1 (stereo not drawn) [Cloxazolam] | Agonist (Prodrug) | 1 mg | –
O=C1CN=C(c2ccccc2Cl)c2cc(Cl)ccc2N1 [Delorazepam] | Agonist | 1 mg | –
CN1C(=O)CN=C(c2ccccc2)c2cc(Cl)ccc21 [Diazepam] | Agonist Long- acting | 10 mg | dose typically administered to achieve an anxiolytic or anti-convulsive effect ([1]; 2-4 times daily): 2 to 10 mg
Clc1ccc2c(c1)C(c1ccccc1)=NCc1nncn1-2 [Estazolam] | Agonist | 2 mg | –
CN1CCN(C(=O)O[C@H]2c3nccnc3C(=O)N2c2ccc(Cl)cn2)CC1 [Eszopiclone] | – | – | Effect at GABA receptor (GABA-A receptor): Agonist; Dose in humans for anti-anxiety, anti-convulsive, or sedative effects: equivalent dose to 10 mg diazepam ([1]; Table 4, values marked *): 3 mg
CCOC(=O)C1N=C(c2ccccc2F)c2cc(Cl)ccc2NC1=O (stereo not drawn) [Ethyl loflazepate] | Agonist (Prodrug) | 2 mg | –
CCc1cc2c(s1)-n1c(C)nnc1CN=C2c1ccccc1Cl [Etizolam] | Full agonist | 0.5 to 1 mg | –
CN1C(=O)CN=C(c2ccccc2F)c2cc([N+](=O)[O-])ccc21 [Flunitrazepam] | Agonist | 1 mg | –
CCN(CC)CCN1C(=O)CN=C(c2ccccc2F)c2cc(Cl)ccc21 [Flurazepam] | Partial agonist | 15 to 30 mg | –
O=C1CN=C(c2ccccc2F)c2cc(Cl)ccc2N1CC1CC1 [Flutoprazepam] | Agonist | 2 to 3 mg | –
CP(C)(=O)CN1C(=O)CN=C(c2ccccc2)c2cc(Cl)ccc21 [Fosazepam] | Agonist Low potency | 60 mg | –
O=C1CN=C(c2ccccc2)c2cc(Cl)ccc2N1CC(F)(F)F [Halazepam] | Agonist | 20 to 40 mg | –
CC1=CC(=O)N2CC(=O)N(C)c3ccc(Cl)cc3C2(c2ccccc2)O1 (stereo not drawn) [Ketazolam] | Agonist | 15 to 30 mg | –

Compound | Effect at GABA-A receptor (GABA-A receptor) | Dose in humans for anti-anxiety, anti-convulsive, or sedative effects: equivalent dose to 10 mg diazepam ([1]; Table 1, values marked *) | further results
CN1CCN(/C=C2\N=C3CN=C(c4ccccc4Cl)c4cc([N+](=O)[O-])ccc4N3C2=O)CC1 [Loprazolam] | Agonist | 2 mg | Dose in humans for anti-anxiety, anti-convulsive, or sedative effects (dose range, typical or average dose) [1]: 1 to 2 mg
O=C1Nc2ccc(Cl)cc2C(c2ccccc2Cl)=NC1O (stereo not drawn) [Lorazepam] | Agonist High- potency | 1 mg | –
CN1C(=O)C(O)N=C(c2ccccc2Cl)c2cc(Cl)ccc21 (stereo not drawn) [Lormetazepam] | Agonist Short- acting | 1.5 mg | –
CN1CCN=C(c2ccccc2)c2cc(Cl)ccc21 [Medazepam] | Agonist Long- acting | 10 mg | –
Cc1ncc2n1-c1ccc(Cl)cc1C(c1ccccc1F)=NC2 [Midazolam] | Agonist Short- acting | 7.5 mg | –
CN1C(=O)CN=C(c2ccccc2)c2cc([N+](=O)[O-])ccc21 [Nimetazepam] | Agonist | 5 mg | –
O=C1CN=C(c2ccccc2)c2cc([N+](=O)[O-])ccc2N1 [Nitrazepam] | Full agonist Long- acting | 10 mg | –
O=C1CN=C(c2ccccc2)c2cc(Cl)ccc2N1 [Nordazepam] | Partial agonist | 10 mg | –
O=C1Nc2ccc(Cl)cc2C(c2ccccc2)=NC1O (stereo not drawn) [Oxazepam] | Agonist Short- acting | 20 mg | Dose in humans, mild/moderate anxiety ([1]; Table 1, 1 to 2 times daily): 10 to 15 mg; Dose in humans, severe anxiety ([1]; Table 1, 3 to 4 times daily): 15 to 30 mg; Dose in humans, symptoms related to alcohol withdrawal ([1]; Table 1, 3 to 4 times daily): 15 to 30 mg
O=C1CN=C(c2ccccc2Cl)c2cc(Br)ccc2N1 [Phenazepam] | Agonist | 1 mg | Dose in humans for anti-anxiety, anti-convulsive, or sedative effects (dose range, typical or average dose) [1]: 0.5 mg
C#CCN1C(=O)CN=C(c2ccccc2)c2cc(Cl)ccc21 [Pinazepam] | Agonist | 20 mg | –
O=C1CN=C(c2ccccc2)c2cc(Cl)ccc2N1CC1CC1 [Prazepam] | Agonist (Prodrug) | 20 mg | –
Cc1c2c(cn1C)NC(=O)CN=C2c1ccccc1 [Premazepam] | Partial agonist | 15 mg | –
Cc1nnc2n1-c1ccc(Br)cc1C(c1ccccn1)=NC2 [Pyrazolam] | Agonist | 1 mg | –
CC(C)(C)C(O)/C=C/c1ccc2c(c1)OCO2 (stereo not drawn) [Stiripentol] | – | – | Dose in humans for anti-anxiety, anti-convulsive, or sedative effects ([1]; Table 4): 50-100 mg/kg/day (max daily dose 4 g)
CN1C(=O)C(O)N=C(c2ccccc2)c2cc(Cl)ccc21 (stereo not drawn) [Temazepam] | Agonist | 20 mg | –
C=CCONC1=Nc2ccc(Cl)cc2C(c2ccccc2Cl)=NC1 [Uldazepam] | Agonist | – | –
O=c1cc2c(nn1-c1ccc(Cl)cc1)-c1ccccc1[S+]([O-])CC2 (stereo not drawn) [Y-23684] | – | – | Effect at GABA receptor (GABA-A receptor): Partial agonist Non- selective
CCOC(=O)c1ncc2[nH]c3ccc(OCc4ccccc4)cc3c2c1COC [ZK-93423] | – | – | Effect at GABA receptor (GABA-A receptor): Agonist
Clc1ccc2c(n1)C(c1ccccc1Cl)=NCc1nncn1-2 [Zapizolam] | Agonist | – | –
Cc1nn(C)c2c1C(c1ccccc1F)=NCC(=O)N2C [Zolazepam] | Agonist | – | –
Cc1nn(C)c2c1N(c1ccccc1)C(=O)CC(=O)N2C [Zomebazam] | Agonist | – | –
